Target: Sphingosine 1-phosphate receptor 1 (Homo sapiens, UniProt P21453)
Experiment: potentiators of S1P1 agonist response, dose response, cell-based, potentiator mode, 60K MLSMR set (AID 466)

Sequence of Sphingosine 1-phosphate receptor 1 (P21453 whole entry): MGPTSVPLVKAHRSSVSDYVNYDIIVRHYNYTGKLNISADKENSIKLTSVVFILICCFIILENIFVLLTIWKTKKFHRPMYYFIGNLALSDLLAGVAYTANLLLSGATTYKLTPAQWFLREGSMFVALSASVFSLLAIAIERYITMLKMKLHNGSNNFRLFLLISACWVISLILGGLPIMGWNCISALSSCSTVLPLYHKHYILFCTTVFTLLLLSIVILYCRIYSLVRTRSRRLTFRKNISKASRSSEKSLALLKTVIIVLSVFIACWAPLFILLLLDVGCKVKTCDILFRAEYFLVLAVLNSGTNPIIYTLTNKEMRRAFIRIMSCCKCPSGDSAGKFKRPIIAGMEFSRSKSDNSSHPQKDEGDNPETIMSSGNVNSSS

EC50: 9.88 µM
SMILES: CC(C)(C)OC(=O)N[C@@H](Cc1ccccc1)c1nnc(S(=O)(=O)Cc2cccc(F)c2)o1 [tert-butyl N-[(1S)-1-[5-[(3-fluorophenyl)methylsulfonyl]-1,3,4-oxadiazol-2-yl]-2-phenylethyl]carbamate]

From BindingDB's records for doi:10.7270/Q2ZC817P (The Scripps Research Institute Molecular Screening Center, 2007)
